# Measurements: patent publication US6489324B2, “Piperazine compounds as inhibitors of MMP or TNF” (Fujisawa Pharmaceutical Co., Ltd., priority 1996, dated 2002)
# Target: T1, Human collagenase (Homo sapiens, UniProt P03956)
# T1 construct: endogenous in cells; host or cells: human skin fibroblasts stimulated with interleukin-1β
# T1 sequence (P03956 100-469): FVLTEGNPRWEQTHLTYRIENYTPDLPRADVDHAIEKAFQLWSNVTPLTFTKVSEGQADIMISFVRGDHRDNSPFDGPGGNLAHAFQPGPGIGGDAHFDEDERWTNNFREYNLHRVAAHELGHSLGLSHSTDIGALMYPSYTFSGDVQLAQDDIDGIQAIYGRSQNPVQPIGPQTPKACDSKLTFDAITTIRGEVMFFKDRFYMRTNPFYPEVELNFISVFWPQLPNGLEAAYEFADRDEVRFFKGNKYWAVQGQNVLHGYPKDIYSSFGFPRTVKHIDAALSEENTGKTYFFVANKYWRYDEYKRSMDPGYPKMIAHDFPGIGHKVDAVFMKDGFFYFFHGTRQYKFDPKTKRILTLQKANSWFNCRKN
# Assay: Inhibitory Activity of Collagenase
# Type: biochemical
# Details: at 1 × 10^−6M; activated collagenase from human skin fibroblast culture medium, FTTC-labeled calf skin type I collagen, 37° C., 120 minutes
# Protocol: Human collagenase was prepared from the culture medium of human skin fibroblast stimulated with interleukin-1β (1 ng/ml). Latent collagenase was activated by incubation with trypsin (200 μg/ml) at 37° C. for 60 minutes and the reaction was stopped by adding soybean trypsin inhibitor (800 μg/ml). Collagenase activity was determined using FTTC-labeled calf skin type I collagen. FTTC-collagen (2.5 mg/ml) was incubated at 37° C. for 120 minutes with the activated collagenase and test compound in 50 mM Tris buffer (containing 5 mM CaCl2, 200 mM NaCl and 0.02% NaN3, pH 7.5). After stopping the enzyme reaction by adding the equal volume of 70% ethanol-200 mM Tris buffer (pH 9.5), the reaction mixture was centrifuged, and collagenase activity was estimated by measuring the fluorescence intensity of supernatant at 495 nm (excitation) and 520 nm (emission).
row,Inhibitory activity,SMILES
1,95.3% at 1 × 10^−6M,"CS(=O)(=O)N1CCN(S(=O)(=O)c2ccc([N+](=O)[O-])cc2)[C@@H](C(=O)NO)C1 [Example 5, (2R)-1-(4-nitrobenzenesulfonyl)-4-methanesulfonylpiperazine-2-(N-hydroxy)carboxamide]"

# Test system: not given
# Assay: not given
# Details: not given
row,SMILES,melting point
1,"CCN(C)S(=O)(=O)[C@@]1(C(=O)NO)CNCCN1S(=O)(=O)c1ccc(-c2ccc(Cl)cc2)s1 [Example 162, (2R)-1-[5-(4-Chlorophenyl)thiophene-2-sulfonyl]-N-hydroxy-2-(N-methylethylaminosulfonyl)-2-piperazinecarboxamide]",170 to 172 °C
2,"O=C(NO)[C@H]1CN(C(=O)Nc2ccccc2)CCN1S(=O)(=O)c1ccc(-c2ccc(F)cc2)s1 [Example 108, (2R)-1-[5-(4-Fluorophenyl)thiophene-2-sulfonyl]-N-hydroxy-4-[(N-phenyl)aminocarbonyl]-2-piperazinecarboxamide]",187 to 188 °C
3,"O=C(NO)[C@H]1CN(S(=O)(=O)CCc2ccccn2)CCN1S(=O)(=O)c1ccc(-c2ccccc2)s1 [Example 106, (2R)-N-Hydroxy-1-(5-phenylthiophene-2-sulfonyl)-4-[2-(2-pyridyl)-ethanesulfonyl]-2-piperazinecarboxamide]",170 to 174 °C
4,"O=C(NO)[C@H]1CN(C(=O)NC2CCCCC2)CCN1S(=O)(=O)c1ccc(-c2ccc(F)cc2)s1 [Example 109, (2R)-4-[(N-Cyclohexyl)aminocarbonyl]-1-[5-(4-fluorophenyl)-thiophene-2-sulfonyl]-N-hydroxy-2-piperazinecarboxamide]",111 to 123 °C
5,"CS(=O)(=O)N1CCN(S(=O)(=O)c2ccc(-c3cccs3)cc2)[C@@H](C(=O)NOC2CCCCO2)C1 (stereo partly drawn) [Example 61, (2R)-4-Methanesulfonyl-1-[4-(thiophen-2-yl)benzenesulfonyl]-N-(2-tetrahydropyranyloxy)-2-piperazinecarboxamide]",194 to 195 °C
6,"O=C(NO)[C@H]1CN(S(=O)(=O)c2ccc(-c3ccon3)s2)CCN1S(=O)(=O)c1ccc(-c2ccccc2)s1 [Example 139, (2R)-N-Hydroxy-4-[5-(isoxazol-3-yl)thiophene-2-sulfonyl]1-(5-phenylthiophene-2-sulfonyl)-2-piperazinecarboxamide]",204 °C

# Results, then the compound that gave them:
row,melting point,SMILES
1,153 to 155 °C,"CN(C)S(=O)(=O)N1CCN(S(=O)(=O)c2ccc(Oc3ccccc3)cc2)[C@@H](C(=O)NO)C1 [Example 176, (2R)-4-(N,N-Dimethylaminosulfonyl)-N-hydroxy-1-(4-phenoxybenzenesulfonyl)-2-piperazinecarboxamide]"
2,105 to 108 °C,"CS(=O)(=O)NCCS(=O)(=O)N1CCN(S(=O)(=O)c2ccc(-c3ccc(C(F)(F)F)cc3)s2)[C@@H](C(=O)NO)C1 [Example 181, (2R)-N-Hydroxy-4-(2-(methanesulfonylamino)ethanesulfonyl]-1-[5-(4-trifluoromethylphenyl)thiophene-2-sulfonyl]-2-piperazinecarboxamide]"
3,118 to 122 °C,"CS(=O)(=O)NCCS(=O)(=O)N1CCN(S(=O)(=O)c2ccc(-c3ccc(Cl)cc3)s2)[C@@H](C(=O)NO)C1 [Example 182, (2R)-1-[5-(4-Chlorophenyl)thiophene-2-sulfonyl]-N-hydroxy-4-[2-(methanesulfonylamino)ethanesulfonyl]-2-piperazinecarboxamide]"
4,94 to 99 °C,"CS(=O)(=O)N1CCN(S(=O)(=O)/C=C/c2ccccc2)[C@@H](C(=O)NO)C1 [Example 189, (2R)-N-Hydroxy-1-(2-phenyl-2-trans-ethenylsulfonyl)-4-methanesulfonyl-2-piperazinecarboxamide]"
5,170 to 172 °C,"CN(C)S(=O)(=O)N1CCN(S(=O)(=O)c2ccc(-c3ccc(CC#N)cc3)s2)[C@@H](C(=O)NO)C1 [Example 173, (2R)-1-[5-(4-Cyanomethylphenyl)thiophene-2-sulfonyl)-4-(N,N-dimethylaminosulfonyl)-N-hydroxy-2-piperazinecarboxamide]"
